The results in this text go back to patent publication US20210100242A1, “FORMULATIONS FOR CONTROL AND REPELLENCY OF BITING ARTHROPODS” (BEDOUKIAN RESEARCH, INC., priority 2019, published 2021).

The test has as its system Adult female Aedes aegypti. The experiment in a line: Membrane feeder repellency test: mosquitoes probing treated collagen membranes over blood-filled wells. It counts as in vivo. The note with it: Total repellent 0.30%. Here is the method:
Adult female Aedes aegypti were obtained from the i2LResearch USA, Inc. colony. Two hundred fifty (250) mosquitoes were used per replicate (seven replicates). Mosquitoes were at least 6 days old and had been deprived of sucrose solution for at least 18 hours prior to testing.
An exposure container was used to present the mosquitoes with a choice of blood-filled wells that were covered with collagen membranes (3 cm in diameter). The collagen membranes were treated by pipetting 6.25 μl of the test treatment onto the appropriate membrane and spreading it evenly with the tip of the pipette.
Exposure container. A 30.5 cm×30.5 cm×30.5 cm container (rigid plastic frame and a sleeved entry on one side and a sliding trap door on the bottom). The container was supported by four (4 cm high) legs.
Membrane feeder. Five wells (3 cm in diameter x 8 mm in depth) in line on a hollow plastic block (6 cm wide x 22 cm long x 3 cm deep). The plastic block fit into the bottom of the exposure container. Hoses mounted on either end of the membrane feeder carried warm water that was pumped from a water bath. The sliding plastic trap door in the bottom of the exposure container covered and uncovered the wells in the membrane feeder, allowing mosquitoes to access the blood-filled wells that were covered with treated collagen membranes.
Study set-up. The membrane feeder was connected to a heated water bath, and warm water passed through the feeder via a circulating pump so that the wells were warmed to 96-100° F. Seventy-two (72) mg of ATP (disodium salt) were added to 26 ml of bovine blood. Sodium citrate was also added to the blood during collection to prevent clotting. The blood was poured into the wells until it completely filled each well (meniscus slightly above the level of the well).
Circular pieces (3 cm in diameter) of collagen membrane were placed over each of the wells. […]
Treatment and exposure to mosquitoes. […] The number of mosquitoes probing the membrane covering each well was recorded every two minutes for twenty minutes. […]
For the molecule `CCN(CC)C(=O)c1cccc(C)c1` [DEET, N,N-diethyl-m-toluamide, reference compound], the “Test result, percentage relative to 0.3 wt % DEET in the same test” value came out at 100.0%. Regarding `CC1CCC(C(C)(C)O)C(O)C1` (stereo not drawn) [PMD, para-menthane-3,8-diol, reference compound], the “Test result, percentage relative to 0.3 wt % DEET in the same test” value is on record as 84.6%. Take `CCNC(=O)C1CC(C)CCC1C(C)C` (stereo not drawn) [WS3, N-ethyl-p-menthane-3-carboxamide]: the “Test result, percentage relative to 0.3 wt % DEET in the same test” value came out at 130.0%.
